Like-named read-outs stand apart in the source and are kept apart here.
Columns and labels:
[1] = tested on: T1, GANAB (zebrafish larvae); test: live larvae exposed, residual activity in lysate with 4MU-alpha-D-glucopyranoside; parameters: species or system Danio rerio; conditions: covalent; in vivo: concentration in egg water, 5 days at 28.5 °C; assay pH 7.0; read-out: CBE / Enz. assay
T1 construct: endogenous enzyme in larvae, measured in larval lysate; paralogues not distinguished
Description: live larvae exposed, residual activity in lysate with 4MU-alpha-D-glucopyranoside on GANAB (zebrafish larvae)

[2] = target: T2, GUSB (zebrafish larvae) (Danio rerio, UniProt F1QGS9); test: live larvae exposed, residual activity in lysate with 4MU-beta-D-glucuronide; conditions: covalent; in vivo: concentration in egg water, 5 days at 28.5 °C; assay pH 5.0; read-out: CBE / Enz. assay
T2 construct: endogenous enzyme in larvae, measured in larval lysate
T2 sequence (F1QGS9 26-644): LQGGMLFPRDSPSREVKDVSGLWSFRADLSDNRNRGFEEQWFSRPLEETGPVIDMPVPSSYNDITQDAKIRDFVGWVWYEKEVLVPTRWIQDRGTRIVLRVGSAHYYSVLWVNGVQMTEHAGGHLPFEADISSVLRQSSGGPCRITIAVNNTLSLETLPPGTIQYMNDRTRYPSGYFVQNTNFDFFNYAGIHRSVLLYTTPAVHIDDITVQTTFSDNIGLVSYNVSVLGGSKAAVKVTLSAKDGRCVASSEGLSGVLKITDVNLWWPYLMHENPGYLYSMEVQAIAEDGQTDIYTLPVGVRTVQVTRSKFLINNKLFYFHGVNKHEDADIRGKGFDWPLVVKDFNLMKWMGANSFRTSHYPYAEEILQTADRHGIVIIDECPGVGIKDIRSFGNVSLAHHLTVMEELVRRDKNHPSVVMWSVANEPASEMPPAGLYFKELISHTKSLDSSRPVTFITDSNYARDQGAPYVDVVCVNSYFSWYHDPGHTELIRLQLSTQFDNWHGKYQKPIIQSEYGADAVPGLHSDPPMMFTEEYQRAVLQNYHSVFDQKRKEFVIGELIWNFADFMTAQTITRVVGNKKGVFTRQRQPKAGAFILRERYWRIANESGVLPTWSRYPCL
Description: live larvae exposed, residual activity in lysate with 4MU-beta-D-glucuronide on GUSB (zebrafish larvae)

[3] = target: T3, GUSB (lysosomal beta-glucuronidase) (Homo sapiens, UniProt P08236); test: intact cells treated, residual activity in lysate with 4MU-beta-D-glucuronide; type: cell-based; conditions: 24 h treatment of intact HEK293T cells, assay pH 5.0
T3 construct: endogenous enzyme in HEK293T cells (GBA2-expressing line)
T3 sequence (P08236 23-651): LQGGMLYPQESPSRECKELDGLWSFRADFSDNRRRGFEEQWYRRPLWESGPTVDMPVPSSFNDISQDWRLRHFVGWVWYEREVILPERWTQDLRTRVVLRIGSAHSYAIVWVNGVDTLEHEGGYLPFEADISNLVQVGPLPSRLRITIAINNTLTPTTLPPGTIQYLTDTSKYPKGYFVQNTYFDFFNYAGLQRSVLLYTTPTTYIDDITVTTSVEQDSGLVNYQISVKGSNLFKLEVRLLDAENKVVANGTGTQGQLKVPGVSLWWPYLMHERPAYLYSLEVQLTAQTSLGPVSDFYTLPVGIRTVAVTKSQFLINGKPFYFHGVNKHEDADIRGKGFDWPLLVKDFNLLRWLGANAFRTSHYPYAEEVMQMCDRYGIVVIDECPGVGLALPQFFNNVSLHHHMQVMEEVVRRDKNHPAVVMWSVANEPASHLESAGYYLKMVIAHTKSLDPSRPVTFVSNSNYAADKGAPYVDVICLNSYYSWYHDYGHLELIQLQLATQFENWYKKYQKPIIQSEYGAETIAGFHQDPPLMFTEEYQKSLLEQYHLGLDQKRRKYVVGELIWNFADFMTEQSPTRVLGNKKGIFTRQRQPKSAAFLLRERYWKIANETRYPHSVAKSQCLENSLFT

`OC1C(O)C(O)C2OC2C1O` (stereo not shown) [compound 1, conduritol B epoxide] was tested, and the IC50 [1] was 4.55 mM, the IC50 [2] was 6.38 mM and the IC50 ([3]; covalent, read-out: CBE / Enz. assay) was 0.607 mM.
For `OC[C@@H]1[C@@H](O)[C@H](O)[C@@H](O)[C@@H]2O[C@H]12` [compound 2, cyclophellitol], the IC50 ([3]; read-out: apparent IC50) was > 0.01 mM.

Source: PMC6850446, “In vivo inactivation of glycosidases by conduritol B epoxide and cyclophellitol as revealed by activity‐based protein profiling” (The Febs Journal, 2019)
